The values below come from ChEMBL document CHEMBL3217484, “N1-Benzyl substituted cambinol analogues as isozyme selective inhibitors of the sirtuin family of protein deacetylases” (Medchemcomm, 2011).

Experiment [1] has as its target T1, NAD-dependent protein deacetylase sirtuin-1 (Homo sapiens) (UniProt Q96EB6).
T1 sequence (whole entry): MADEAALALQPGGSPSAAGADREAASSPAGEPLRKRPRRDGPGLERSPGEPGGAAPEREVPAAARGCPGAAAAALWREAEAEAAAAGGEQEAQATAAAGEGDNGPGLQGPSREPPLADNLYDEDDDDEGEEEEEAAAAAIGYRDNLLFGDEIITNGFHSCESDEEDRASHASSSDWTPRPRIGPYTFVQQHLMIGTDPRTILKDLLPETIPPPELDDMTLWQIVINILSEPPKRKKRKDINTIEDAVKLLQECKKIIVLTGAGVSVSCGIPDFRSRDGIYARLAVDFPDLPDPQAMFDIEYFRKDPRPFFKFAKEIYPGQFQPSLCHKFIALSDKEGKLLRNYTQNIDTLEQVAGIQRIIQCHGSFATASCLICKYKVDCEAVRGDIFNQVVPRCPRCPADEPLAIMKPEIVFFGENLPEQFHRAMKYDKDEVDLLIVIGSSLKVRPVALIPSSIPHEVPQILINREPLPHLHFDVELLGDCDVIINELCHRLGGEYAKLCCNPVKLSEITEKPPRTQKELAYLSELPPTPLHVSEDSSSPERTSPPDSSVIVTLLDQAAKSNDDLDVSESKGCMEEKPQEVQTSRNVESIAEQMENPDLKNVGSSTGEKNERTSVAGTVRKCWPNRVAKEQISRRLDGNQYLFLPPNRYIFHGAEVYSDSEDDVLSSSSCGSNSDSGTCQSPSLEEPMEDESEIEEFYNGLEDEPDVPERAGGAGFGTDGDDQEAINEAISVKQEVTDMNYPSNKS
In words: Inhibition of human recombinant SIRT1 using fluor de Lys as substrate at 60 uM after 1 hr by fluorimeter analysis.

Experiment [2] deals with T2, NAD-dependent protein deacetylase sirtuin-2 (Homo sapiens) (UniProt Q8IXJ6).
T2 sequence (whole entry): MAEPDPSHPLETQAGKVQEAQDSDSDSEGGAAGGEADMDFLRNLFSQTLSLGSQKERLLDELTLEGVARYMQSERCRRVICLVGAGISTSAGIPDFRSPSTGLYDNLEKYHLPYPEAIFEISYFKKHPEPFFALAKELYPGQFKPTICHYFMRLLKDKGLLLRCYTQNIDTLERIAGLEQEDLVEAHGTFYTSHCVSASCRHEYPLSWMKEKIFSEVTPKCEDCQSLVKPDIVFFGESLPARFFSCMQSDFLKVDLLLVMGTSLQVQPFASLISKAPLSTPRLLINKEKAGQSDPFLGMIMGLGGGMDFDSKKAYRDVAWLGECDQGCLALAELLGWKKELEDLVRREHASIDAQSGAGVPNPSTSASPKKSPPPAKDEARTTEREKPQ
The experiment in a line: Inhibition of human recombinant SIRT2 using fluor de Lys as substrate at 60 uM after 1 hr by fluorimeter analysis.

For the next experiment, the system named is H1299. In words: Inhibition of sirtuin in human H1299 cells assessed increase in alpha-tubulin acetylation at 60 uM after 24 hrs by Western blot analysis in presence of trichostatin-A relative to control. Format: cell-based. For orientation: Immunoblotting shows a protein as a band on a membrane.
The target in experiment [3] is T3, NAD-dependent protein deacetylase sirtuin-2 (Homo sapiens, UniProt Q8IXJ6).
T3 sequence (Q8IXJ6 whole entry): T2 sequence (whole entry)
The experiment in a line: Inhibition of human recombinant SIRT2 using fluor de Lys as substrate after 1 hr by fluorimeter analysis.

Experiment [4] addresses T4, NAD-dependent protein deacetylase sirtuin-1 (Homo sapiens, UniProt Q96EB6).
T4 sequence (Q96EB6 whole entry): T1 sequence (whole entry)
In words: Inhibition of human recombinant SIRT1 using fluor de Lys as substrate after 1 hr by fluorimeter analysis.

Broadly, the inhibition is the drop in the measured response relative to a control, in per cent. As to `CCCCn1c(-c2ccc(Cl)cc2)c(Cc2c(OC)ccc3ccccc23)c(=O)[nH]c1=S`, the results for the inhibition in experiment [1] and in experiment [2] were 18.4% and 49.4%, respectively.
The matching figures for `O=c1[nH]c(=S)n(Cc2ccccc2)c(-c2ccccc2)c1Cc1c(O)ccc2ccccc12`: 10.8% and 62%.
The matching figures for `CCCCn1c(-c2ccccc2C)c(Cc2c(OC)ccc3ccccc23)c(=O)[nH]c1=S`: 11.5% and 37.3%.
The matching figures for `O=c1[nH]c(=S)n(Cc2ccccc2)c(-c2ccccc2)c1Cc1c(OCc2ccccc2)ccc2ccccc12`: 25.4% and 48.4%.
On to `COc1ccc2ccccc2c1Cc1c(-c2ccccc2)n(C)c(=S)[nH]c1=O`, for which the inhibition worked out at 36.2% in experiment [1] and 37.7% in experiment [2].
For the compound `CCCOc1ccc(Cn2c(-c3ccccc3)c(Cc3c(OCc4ccccc4)ccc4ccccc34)c(=O)[nH]c2=S)cc1`, the inhibition in experiment [1] amounted to 22.8%; in experiment [2] it was 65.1%.
By IC50 is commonly meant the concentration needed to halve the response being measured. `CCOc1ccc(Cn2c(-c3ccccc3)c(Cc3c(O)ccc4ccccc34)c(=O)[nH]c2=S)cc1`: in the experiment with H1299, the fold change (FC) was 1.7. Further, the inhibition in experiment [1] amounted to 13.4%; in experiment [2], 88.9%. The IC50 in experiment [3] was 4 µM; in experiment [4], over 120 µM.
Regarding `CCCOc1ccc(Cn2c(-c3ccccc3)c(Cc3c(O)ccc4ccccc34)c(=O)[nH]c2=S)cc1`, the inhibition came out at 15.6% in experiment [1] and 85.4% in experiment [2]. Besides, the IC50 in experiment [3] was 6 µM; in experiment [4] it was over 120 µM.
For `COc1ccc2ccccc2c1Cc1c(-c2ccccc2)n(Cc2ccccc2)c(=S)[nH]c1=O`, the inhibition in experiment [2] stood at 37.7%.
For the compound `COc1ccc(Cn2c(-c3ccccc3)c(Cc3c(O)ccc4ccccc34)c(=O)[nH]c2=S)cc1`, in experiment [2], the inhibition is 73.4%. Moreover, the IC50 in experiment [3] was determined as 12 µM; in experiment [4], 58.2 µM.
Regarding `CCOc1ccc(Cn2c(-c3ccccc3)c(Cc3ccccc3)c(=O)[nH]c2=S)cc1`, the inhibition in experiment [1] turned out to be 35%; in experiment [2], 73.3%. Also, the IC50 turned out to be 10 µM in experiment [3] and 68.1 µM in experiment [4].
Take `CCCOc1ccc(Cn2c(-c3ccccc3)c(Cc3c(OC)ccc4ccccc34)c(=O)[nH]c2=S)cc1`: the inhibition came to 38% in experiment [1] and 71.8% in experiment [2]. In addition, the values for the IC50 in experiment [3] and in experiment [4] were 11 µM and 61.9 µM, respectively.
In the case of `CCOc1ccc(Cn2c(-c3ccccc3)c(Cc3c(OCc4ccccc4)ccc4ccccc34)c(=O)[nH]c2=S)cc1`, the values for the inhibition in experiment [1] and in experiment [2] were 36.6% and 67.2%, respectively.
As for `COc1ccc(Cn2c(-c3ccccc3)c(Cc3ccccc3)c(=O)[nH]c2=S)cc1`, the figures for the inhibition in experiment [1] and in experiment [2] were 32.2% and 67%, respectively.
As to `O=c1[nH]c(=S)[nH]c(-c2ccccc2)c1Cc1c(O)ccc2ccccc12`, in the experiment on H1299, the fold change (FC) turned out to be 1.3.
Regarding `CCCCOc1ccc(Cn2c(-c3ccccc3)c(Cc3c(OC)ccc4ccccc34)c(=O)[nH]c2=S)cc1`, the inhibition is 32.7% in experiment [1] and 66.1% in experiment [2].
Turning to `COc1ccc(Cn2c(-c3ccccc3)c(Cc3c(OC)ccc4ccccc34)c(=O)[nH]c2=S)cc1`, the inhibition is 8.8% in experiment [1] and 66.1% in experiment [2].
For `O=c1[nH]c(=S)n(Cc2ccccc2)c(-c2ccccc2)c1Cc1ccccc1`, the inhibition was found to be 23% in experiment [1] and 45.1% in experiment [2].
Consider `CCOc1ccc(Cn2c(-c3ccccc3)c(Cc3c(OC)ccc4ccccc34)c(=O)[nH]c2=S)cc1`, for which the inhibition amounted to 19.3% in experiment [1] and 72.2% in experiment [2]. The IC50 in experiment [3] was 16 µM; in experiment [4], over 120 µM.
Consider `O=c1cc(-c2ccccc2)n(Cc2ccccc2)c(=S)[nH]1`, for which the inhibition in experiment [1] worked out at 1.8%; in experiment [2] it was 27%.
The matching figures for `CCCCOc1ccc(Cn2c(-c3ccccc3)c(Cc3ccccc3)c(=O)[nH]c2=S)cc1`: 8.5% and 63.3%.
Consider `COc1ccc(Cn2c(-c3ccccc3)c(Cc3c(OCc4ccccc4)ccc4ccccc34)c(=O)[nH]c2=S)cc1`, for which the values for the inhibition in experiment [1] and in experiment [2] were 29.8% and 56.9%, respectively.
